{
  "source": "patent US20200171028A1",
  "about": "“METALLOENZYME INHIBITOR COMPOUNDS” (Viiamet Pharmaceuticals Holdings, LLC, priority 2017, published 2020)",
  "type_in_all_cases": "biochemical",
  "key": {"HDAC6": {"target": "T1, HDAC6 (Homo sapiens, UniProt Q9UBN7)", "T1 sequence (Q9UBN7 1-1215)": "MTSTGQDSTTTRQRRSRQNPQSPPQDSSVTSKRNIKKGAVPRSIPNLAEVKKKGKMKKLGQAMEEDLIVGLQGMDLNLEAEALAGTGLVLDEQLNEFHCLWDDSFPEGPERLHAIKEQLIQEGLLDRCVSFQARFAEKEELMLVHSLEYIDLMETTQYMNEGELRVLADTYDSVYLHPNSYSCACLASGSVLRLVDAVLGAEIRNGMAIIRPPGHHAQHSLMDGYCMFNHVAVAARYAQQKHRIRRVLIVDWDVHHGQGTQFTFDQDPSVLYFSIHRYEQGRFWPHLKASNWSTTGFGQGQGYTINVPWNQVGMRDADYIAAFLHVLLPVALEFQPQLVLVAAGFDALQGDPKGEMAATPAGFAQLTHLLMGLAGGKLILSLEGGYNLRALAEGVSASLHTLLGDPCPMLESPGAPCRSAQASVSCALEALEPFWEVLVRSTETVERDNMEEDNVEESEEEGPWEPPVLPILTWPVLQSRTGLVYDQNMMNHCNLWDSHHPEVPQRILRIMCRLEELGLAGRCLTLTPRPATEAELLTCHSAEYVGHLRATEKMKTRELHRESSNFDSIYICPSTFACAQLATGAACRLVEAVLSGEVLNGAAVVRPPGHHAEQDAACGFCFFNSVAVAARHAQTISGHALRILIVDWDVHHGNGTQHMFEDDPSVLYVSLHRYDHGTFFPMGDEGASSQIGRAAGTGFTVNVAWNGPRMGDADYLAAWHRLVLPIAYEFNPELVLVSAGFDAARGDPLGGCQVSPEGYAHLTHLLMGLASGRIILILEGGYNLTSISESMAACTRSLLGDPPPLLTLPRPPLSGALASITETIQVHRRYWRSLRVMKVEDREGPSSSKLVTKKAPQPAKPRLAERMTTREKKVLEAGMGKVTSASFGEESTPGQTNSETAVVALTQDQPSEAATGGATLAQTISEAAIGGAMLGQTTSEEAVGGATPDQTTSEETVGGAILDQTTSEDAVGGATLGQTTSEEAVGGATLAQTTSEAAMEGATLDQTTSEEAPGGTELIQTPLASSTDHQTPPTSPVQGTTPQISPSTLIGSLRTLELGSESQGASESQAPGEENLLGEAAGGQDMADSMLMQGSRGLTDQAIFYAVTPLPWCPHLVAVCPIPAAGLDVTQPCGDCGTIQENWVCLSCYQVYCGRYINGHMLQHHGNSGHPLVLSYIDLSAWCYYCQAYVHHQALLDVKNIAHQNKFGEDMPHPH", "experiment": "HDAC6 enzymatic assay", "conditions": "Table 3 comparison results", "method": "(§1) All enzymatic reactions were conducted in duplicate at room temperature for 17 hours in a 50 μl mixture containing HDAC assay buffer (50 mM Tris-HCl, pH 7.4, 137 mM NaCl, 2.7 mM KCl, 0.05% Tween 20, 5 μg BSA), an HDAC substrate, an HDAC enzyme, and a test compound. Compound dilution was prepared ten-fold higher than the final concentration of the compounds with 10% DMSO in HDAC assay buffer and 5 al of the dilution was added to a 50 al reaction so that the final concentration of DMSO is 1% in all of reactions. After enzymatic reactions, 50 μl of HDAC Developer was added to each well and the plate was incubated at room temperature for an additional 20 minutes. Fluorescence intensity was measured at an excitation of 360 nm and an emission of 460 nm using a Tecan Infinite M1000 or Biotek Synergy microplate reader. The fluorescent intensity data were analyzed using the computer software, Graphpad Prism. In the absence of the compound, the fluorescent intensity (Ft) in each data set was defined as 100% activity. In the absence of HDAC, the fluorescent intensity (Fb) in each data set was defined as 0% activity. The percent activity in the presence of each compound was calculated according to the following equation: % activity=(F−Fb)/(Ft−Fb), where F=the fluorescent intensity in the presence of the compound. […]"}, "HDAC11": {"target": "T2, HDAC11 (Homo sapiens, UniProt Q96DB2)", "T2 sequence (Q96DB2 1-347)": "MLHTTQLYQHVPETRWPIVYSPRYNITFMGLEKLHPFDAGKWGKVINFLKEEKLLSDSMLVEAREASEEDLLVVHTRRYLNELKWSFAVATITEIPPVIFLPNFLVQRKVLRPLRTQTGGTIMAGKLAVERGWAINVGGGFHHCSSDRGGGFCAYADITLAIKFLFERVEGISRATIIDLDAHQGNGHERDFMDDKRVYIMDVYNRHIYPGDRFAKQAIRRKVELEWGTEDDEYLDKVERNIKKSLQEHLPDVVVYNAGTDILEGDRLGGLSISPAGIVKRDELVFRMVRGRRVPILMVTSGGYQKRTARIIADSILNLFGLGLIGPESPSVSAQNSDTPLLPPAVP", "experiment": "HDAC11 enzymatic assay", "conditions": "Table 3 comparison results", "method": "as §1"}, "HDAC2": {"target": "HDAC2 (Homo sapiens, UniProt Q92769)", "sequence (Q92769 whole entry)": "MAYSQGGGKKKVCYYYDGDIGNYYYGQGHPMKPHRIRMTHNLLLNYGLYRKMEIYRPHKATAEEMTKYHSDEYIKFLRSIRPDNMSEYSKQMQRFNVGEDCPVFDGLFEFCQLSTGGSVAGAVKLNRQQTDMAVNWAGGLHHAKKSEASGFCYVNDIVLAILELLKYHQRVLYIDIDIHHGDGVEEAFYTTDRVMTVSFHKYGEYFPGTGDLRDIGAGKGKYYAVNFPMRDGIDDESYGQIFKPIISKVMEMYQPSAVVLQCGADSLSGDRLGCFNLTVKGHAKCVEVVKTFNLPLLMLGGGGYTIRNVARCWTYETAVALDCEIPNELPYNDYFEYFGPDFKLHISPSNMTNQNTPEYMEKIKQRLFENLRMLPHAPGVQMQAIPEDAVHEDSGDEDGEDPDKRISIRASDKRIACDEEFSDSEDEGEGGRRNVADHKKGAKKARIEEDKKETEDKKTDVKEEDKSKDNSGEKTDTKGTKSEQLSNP", "experiment": "HDAC2 enzymatic assay", "method": "as §1"}, "HDAC9": {"target": "HDAC9 (Homo sapiens, UniProt Q9UKV0)", "sequence (Q9UKV0 whole entry)": "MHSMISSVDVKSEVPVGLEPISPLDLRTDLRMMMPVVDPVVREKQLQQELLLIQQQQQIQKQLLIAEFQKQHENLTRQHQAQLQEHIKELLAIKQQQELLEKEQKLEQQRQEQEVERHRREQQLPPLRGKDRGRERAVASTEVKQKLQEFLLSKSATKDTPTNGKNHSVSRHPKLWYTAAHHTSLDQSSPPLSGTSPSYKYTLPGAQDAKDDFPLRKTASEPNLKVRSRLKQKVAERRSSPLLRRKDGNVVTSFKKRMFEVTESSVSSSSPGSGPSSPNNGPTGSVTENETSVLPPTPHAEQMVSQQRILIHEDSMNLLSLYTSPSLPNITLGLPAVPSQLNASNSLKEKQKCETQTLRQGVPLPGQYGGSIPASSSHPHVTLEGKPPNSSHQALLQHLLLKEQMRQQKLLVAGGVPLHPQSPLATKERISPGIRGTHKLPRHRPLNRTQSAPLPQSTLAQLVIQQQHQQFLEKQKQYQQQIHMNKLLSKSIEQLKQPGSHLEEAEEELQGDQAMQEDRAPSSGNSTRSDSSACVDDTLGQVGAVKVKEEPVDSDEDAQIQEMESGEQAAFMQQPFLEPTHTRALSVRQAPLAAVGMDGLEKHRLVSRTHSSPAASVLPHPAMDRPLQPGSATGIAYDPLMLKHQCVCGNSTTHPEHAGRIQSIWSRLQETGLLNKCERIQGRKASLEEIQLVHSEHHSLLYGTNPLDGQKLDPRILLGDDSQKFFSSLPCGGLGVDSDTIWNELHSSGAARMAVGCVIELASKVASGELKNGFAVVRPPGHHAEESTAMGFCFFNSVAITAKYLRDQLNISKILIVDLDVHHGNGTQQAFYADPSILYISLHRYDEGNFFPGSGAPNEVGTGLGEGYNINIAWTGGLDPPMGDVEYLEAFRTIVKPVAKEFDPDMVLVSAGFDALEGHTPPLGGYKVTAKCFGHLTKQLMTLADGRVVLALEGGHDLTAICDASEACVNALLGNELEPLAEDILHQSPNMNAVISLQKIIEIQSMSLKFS", "experiment": "HDAC9 enzymatic assay", "conditions": "Table 3 comparison results", "method": "as §1"}, "HDAC4": {"target": "HDAC4 (Homo sapiens, UniProt P56524)", "sequence (P56524 whole entry)": "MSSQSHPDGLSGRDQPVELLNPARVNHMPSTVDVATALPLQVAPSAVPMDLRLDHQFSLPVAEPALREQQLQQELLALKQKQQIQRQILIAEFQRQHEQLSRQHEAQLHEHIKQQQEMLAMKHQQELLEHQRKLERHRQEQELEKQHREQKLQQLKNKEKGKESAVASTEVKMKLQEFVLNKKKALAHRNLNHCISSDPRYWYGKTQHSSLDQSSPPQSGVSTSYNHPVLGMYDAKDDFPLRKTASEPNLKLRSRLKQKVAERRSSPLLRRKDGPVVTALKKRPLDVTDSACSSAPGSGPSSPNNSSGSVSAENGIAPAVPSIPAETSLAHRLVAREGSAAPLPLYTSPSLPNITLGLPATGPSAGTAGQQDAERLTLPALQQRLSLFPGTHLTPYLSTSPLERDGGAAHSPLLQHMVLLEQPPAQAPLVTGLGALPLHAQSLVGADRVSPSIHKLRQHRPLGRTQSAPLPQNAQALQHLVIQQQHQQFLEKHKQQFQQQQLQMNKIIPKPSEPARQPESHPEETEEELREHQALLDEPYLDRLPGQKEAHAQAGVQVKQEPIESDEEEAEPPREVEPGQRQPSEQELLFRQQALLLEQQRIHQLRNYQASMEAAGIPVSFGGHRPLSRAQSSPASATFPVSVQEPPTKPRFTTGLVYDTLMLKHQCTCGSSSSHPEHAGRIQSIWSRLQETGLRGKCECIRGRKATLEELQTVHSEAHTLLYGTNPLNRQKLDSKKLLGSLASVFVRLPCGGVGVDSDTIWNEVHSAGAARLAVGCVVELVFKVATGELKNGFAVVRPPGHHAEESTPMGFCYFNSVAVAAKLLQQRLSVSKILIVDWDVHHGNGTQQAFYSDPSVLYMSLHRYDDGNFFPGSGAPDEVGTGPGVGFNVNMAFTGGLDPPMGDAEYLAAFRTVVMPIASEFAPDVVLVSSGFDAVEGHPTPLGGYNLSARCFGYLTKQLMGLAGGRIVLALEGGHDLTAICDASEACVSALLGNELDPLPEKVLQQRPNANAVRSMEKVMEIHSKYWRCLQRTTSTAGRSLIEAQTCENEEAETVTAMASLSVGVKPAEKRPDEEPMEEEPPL", "experiment": "HDAC4 enzymatic assay", "conditions": "Table 3 comparison results", "method": "as §1"}, "HDAC10": {"target": "T3, HDAC10 (Homo sapiens, UniProt Q969S8)", "T3 sequence (Q969S8 1-669)": "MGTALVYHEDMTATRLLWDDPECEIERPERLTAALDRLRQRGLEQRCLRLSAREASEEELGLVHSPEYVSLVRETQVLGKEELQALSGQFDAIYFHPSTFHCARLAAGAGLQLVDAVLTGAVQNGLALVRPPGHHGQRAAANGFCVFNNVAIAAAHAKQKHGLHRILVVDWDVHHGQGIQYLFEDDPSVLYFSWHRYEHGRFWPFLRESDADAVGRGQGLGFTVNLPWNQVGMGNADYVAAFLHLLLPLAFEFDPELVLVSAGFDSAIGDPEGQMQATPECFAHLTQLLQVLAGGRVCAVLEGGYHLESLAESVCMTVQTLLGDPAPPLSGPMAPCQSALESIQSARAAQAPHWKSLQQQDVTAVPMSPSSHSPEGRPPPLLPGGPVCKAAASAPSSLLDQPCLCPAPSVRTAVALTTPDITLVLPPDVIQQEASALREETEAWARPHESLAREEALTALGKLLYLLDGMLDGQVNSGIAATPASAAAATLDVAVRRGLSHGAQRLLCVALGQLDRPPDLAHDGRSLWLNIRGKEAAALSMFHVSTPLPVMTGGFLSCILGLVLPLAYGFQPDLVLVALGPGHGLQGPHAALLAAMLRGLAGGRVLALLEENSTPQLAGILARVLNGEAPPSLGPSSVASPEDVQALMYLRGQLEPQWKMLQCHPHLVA", "experiment": "HDAC10 enzymatic assay", "conditions": "Table 3 comparison results", "method": "as §1"}, "HDAC7": {"target": "T4, HDAC7 (Homo sapiens, UniProt Q8WUI4)", "T4 sequence (Q8WUI4 1-952)": "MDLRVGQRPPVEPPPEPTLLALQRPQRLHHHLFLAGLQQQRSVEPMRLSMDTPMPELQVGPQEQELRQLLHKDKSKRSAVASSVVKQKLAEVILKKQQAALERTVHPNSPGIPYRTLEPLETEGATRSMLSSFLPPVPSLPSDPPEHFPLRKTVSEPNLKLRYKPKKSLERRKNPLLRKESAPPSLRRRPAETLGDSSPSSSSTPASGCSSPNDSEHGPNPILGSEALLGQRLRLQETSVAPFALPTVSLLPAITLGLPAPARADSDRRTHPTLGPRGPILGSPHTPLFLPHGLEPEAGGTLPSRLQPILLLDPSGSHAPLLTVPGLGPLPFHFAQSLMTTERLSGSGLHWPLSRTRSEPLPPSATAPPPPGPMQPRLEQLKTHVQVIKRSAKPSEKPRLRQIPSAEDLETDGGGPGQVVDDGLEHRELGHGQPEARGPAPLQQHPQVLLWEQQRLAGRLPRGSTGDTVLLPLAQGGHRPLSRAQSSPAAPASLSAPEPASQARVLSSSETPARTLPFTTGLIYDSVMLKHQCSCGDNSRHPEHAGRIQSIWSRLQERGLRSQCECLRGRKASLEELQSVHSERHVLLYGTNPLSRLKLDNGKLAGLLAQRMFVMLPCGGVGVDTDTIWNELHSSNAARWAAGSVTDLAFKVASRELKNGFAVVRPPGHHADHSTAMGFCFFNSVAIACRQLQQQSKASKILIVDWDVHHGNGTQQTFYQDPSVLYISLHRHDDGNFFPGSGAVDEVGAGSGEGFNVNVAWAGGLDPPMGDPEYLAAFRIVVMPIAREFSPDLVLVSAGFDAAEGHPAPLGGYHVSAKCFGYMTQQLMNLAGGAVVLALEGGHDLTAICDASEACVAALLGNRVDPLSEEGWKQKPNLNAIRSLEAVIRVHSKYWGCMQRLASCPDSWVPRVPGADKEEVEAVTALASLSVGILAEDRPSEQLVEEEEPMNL", "experiment": "HDAC7 enzymatic assay", "conditions": "Table 3 comparison results", "method": "as §1"}, "HDAC3/NCOR2": {"target": "HDAC3/NCOR2 (Homo sapiens, UniProt O15379)", "sequence (Q9Y618 395-489)": "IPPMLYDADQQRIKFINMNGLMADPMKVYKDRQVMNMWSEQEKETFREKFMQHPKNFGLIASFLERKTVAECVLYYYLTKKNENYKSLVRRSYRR", "sequence (O15379 whole entry)": "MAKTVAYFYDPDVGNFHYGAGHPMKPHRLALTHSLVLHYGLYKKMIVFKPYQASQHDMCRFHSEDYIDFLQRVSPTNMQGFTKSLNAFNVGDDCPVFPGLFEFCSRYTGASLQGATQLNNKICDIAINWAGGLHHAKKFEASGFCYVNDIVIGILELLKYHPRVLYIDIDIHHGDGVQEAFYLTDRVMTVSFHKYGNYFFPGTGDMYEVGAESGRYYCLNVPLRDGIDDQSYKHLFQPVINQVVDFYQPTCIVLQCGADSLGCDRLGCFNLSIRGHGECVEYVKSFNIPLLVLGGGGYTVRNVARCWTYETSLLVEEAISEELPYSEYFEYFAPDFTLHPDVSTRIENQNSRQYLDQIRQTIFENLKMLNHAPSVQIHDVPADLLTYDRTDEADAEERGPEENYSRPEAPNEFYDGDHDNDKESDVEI", "experiment": "HDAC3 enzymatic assay", "method": "as §1"}, "HDAC8": {"target": "T5, HDAC8 (Homo sapiens, UniProt Q9BY41)", "T5 sequence (Q9BY41 1-377)": "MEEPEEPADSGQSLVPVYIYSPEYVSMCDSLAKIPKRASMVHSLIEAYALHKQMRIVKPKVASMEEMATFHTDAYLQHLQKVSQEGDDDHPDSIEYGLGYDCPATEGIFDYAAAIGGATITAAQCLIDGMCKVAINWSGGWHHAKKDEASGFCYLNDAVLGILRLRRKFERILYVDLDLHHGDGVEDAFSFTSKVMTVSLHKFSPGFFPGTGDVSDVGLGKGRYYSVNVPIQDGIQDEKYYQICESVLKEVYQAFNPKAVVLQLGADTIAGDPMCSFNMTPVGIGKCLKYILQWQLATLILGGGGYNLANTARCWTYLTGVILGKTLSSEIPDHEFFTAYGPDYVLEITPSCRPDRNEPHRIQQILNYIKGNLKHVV", "experiment": "HDAC8 enzymatic assay", "method": "as §1"}, "HDAC5": {"target": "HDAC5 (Homo sapiens, UniProt Q9UQL6)", "sequence (Q9UQL6 whole entry)": "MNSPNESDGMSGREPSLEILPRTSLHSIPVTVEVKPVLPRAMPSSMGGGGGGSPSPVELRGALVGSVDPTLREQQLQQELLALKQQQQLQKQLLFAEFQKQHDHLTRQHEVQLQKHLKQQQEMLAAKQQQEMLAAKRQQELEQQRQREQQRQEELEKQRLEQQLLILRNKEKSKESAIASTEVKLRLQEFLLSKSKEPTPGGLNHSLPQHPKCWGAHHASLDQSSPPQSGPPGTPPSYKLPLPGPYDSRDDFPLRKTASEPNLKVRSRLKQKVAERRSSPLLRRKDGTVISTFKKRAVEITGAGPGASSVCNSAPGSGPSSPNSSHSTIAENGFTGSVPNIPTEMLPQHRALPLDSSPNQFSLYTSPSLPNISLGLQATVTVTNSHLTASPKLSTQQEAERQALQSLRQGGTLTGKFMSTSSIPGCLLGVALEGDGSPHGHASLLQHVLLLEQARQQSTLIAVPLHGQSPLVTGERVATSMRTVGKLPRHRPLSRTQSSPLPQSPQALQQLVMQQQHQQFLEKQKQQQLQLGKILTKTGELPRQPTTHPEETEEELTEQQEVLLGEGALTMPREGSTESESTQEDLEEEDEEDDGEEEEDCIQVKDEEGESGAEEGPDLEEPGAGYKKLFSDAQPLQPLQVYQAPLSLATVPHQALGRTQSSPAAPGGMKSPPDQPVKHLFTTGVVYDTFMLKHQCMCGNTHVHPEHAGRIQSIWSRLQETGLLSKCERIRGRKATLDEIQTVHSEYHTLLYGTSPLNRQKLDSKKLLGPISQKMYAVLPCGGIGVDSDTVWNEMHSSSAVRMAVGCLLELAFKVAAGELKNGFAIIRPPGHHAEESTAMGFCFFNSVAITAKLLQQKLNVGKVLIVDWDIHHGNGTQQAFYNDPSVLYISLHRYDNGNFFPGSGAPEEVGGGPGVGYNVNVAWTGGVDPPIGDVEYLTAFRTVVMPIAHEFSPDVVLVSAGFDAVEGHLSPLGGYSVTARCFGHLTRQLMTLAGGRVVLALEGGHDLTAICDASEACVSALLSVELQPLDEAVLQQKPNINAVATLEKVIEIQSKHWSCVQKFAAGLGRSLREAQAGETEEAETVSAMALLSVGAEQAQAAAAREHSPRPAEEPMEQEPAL", "experiment": "HDAC5 enzymatic assay", "conditions": "Table 3 comparison results", "method": "as §1"}, "HDAC1": {"target": "HDAC1 (Homo sapiens, UniProt Q13547)", "sequence (Q13547 whole entry)": "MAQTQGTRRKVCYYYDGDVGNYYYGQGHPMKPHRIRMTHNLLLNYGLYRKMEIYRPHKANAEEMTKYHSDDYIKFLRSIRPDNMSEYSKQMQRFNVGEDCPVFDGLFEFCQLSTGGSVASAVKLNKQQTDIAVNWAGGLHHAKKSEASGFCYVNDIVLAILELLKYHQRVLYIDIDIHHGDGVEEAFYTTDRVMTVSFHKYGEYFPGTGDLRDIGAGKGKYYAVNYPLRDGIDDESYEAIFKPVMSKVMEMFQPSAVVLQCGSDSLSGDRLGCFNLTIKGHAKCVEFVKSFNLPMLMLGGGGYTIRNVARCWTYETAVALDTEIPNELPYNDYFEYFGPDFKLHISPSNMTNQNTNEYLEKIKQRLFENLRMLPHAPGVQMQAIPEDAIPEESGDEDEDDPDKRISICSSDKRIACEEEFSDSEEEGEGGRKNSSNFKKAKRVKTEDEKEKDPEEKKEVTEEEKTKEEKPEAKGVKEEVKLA", "experiment": "HDAC1 enzymatic assay", "method": "as §1"}},
  "data": [
    {"smiles": "FC(F)(F)c1nc(-c2cnc(NC3(c4ccccc4)CC3)nc2)no1", "values": [
      {"measurement": "IC50", "setting": "HDAC6", "result": 150, "unit": "nM"},
      {"measurement": "IC50", "setting": "HDAC11", "result": "> 30000", "unit": "nM"},
      {"measurement": "IC50", "setting": "HDAC2", "result": 13000, "unit": "nM"},
      {"measurement": "IC50", "setting": "HDAC9", "result": 77, "unit": "nM"},
      {"measurement": "IC50", "setting": "HDAC4", "result": 13, "unit": "nM"},
      {"measurement": "IC50", "setting": "HDAC10", "result": 6400, "unit": "nM"},
      {"measurement": "IC50", "setting": "HDAC7", "result": 20, "unit": "nM"},
      {"measurement": "IC50", "setting": "HDAC3/NCOR2", "result": 4100, "unit": "nM"},
      {"measurement": "IC50", "setting": "HDAC8", "result": "> 30000", "unit": "nM"},
      {"measurement": "IC50", "setting": "HDAC5", "result": 250, "unit": "nM"}
    ]},
    {"smiles": "FC(F)c1nc(-c2cnc(NC3(c4ccccc4)CC3)nc2)no1", "values": [
      {"measurement": "IC50", "setting": "HDAC6", "result": 2900, "unit": "nM"},
      {"measurement": "IC50", "setting": "HDAC1", "result": "> 30000", "unit": "nM"}
    ]}
  ]
}
